{"source": "patent US20250313537A1", "about": "“BENZ[…] AND METHODS OF USE IN TREATING CANCER” (University of Cincinnati, priority 2022, published 2025)", "key": {"[1]": {"system": "H1792 cells", "assay": "In vitro viability assay (Cell Titer 96 Aqueous One), H1792", "assay_type": "cell-based, human", "conditions": "H1792 cells (FIG. 6, 7A, 7B)", "protocol": "(§1) Cell lines tested were purchased from the American Type Culture Collection (ATCC). Cells were maintained in Dulbecco's Modified Eagle's Medium (DMEM) (Corning) or Roswell Park Memorial Institute (RPMI) 1640 Medium (Gibco). Media for lines was supplemented with 10% (v/v) Fetal Bovine Serum (FBS) (Corning) and 100 U/mL penicillin/streptomycin (Sigma). Lines were grown at 37° C. with 5% (v/v) CO2. Cells were passaged twice a week at 1:10 ratio and reached 80 to 90% confluency between 72 and 96 hours.\n(§2) For in vitro studies drug was solubilized in dimethyl sulfoxide (DMSO, 0.125%) prior to use. For mouse studies drug was solubilized in a co-solvent formulation: propylene glycol (40%); ethanol (10%); benzyl alcohol (2%); benzoic acid (2%); sodium benzoate (2%).\n(§3) For cell proliferation viability studies, cells were assayed using the Cell Titer 96® Aqueous One Solution Assay (Promega). IC50 values were determined using the ‘[Inhibitor] versus normalized response’ nonlinear regression function and the log of inhibitor concentration in Prism 8 software (version 8.3.0 for MacOS)."}, "[2]": {"system": "GABAA receptors", "assay": "Single-cell patch-clamp electrophysiology in H1792 cells", "assay_type": "cell-based, human", "conditions": "1 μM GABA + 4 μM QH-II-066", "description": "Recording solutions were purchased from Nanion Technologies."}, "[3]": {"system": "NIX", "assay": "Western blot of NIX in H1792 cells", "assay_type": "cell-based, human", "protocol": "(§4) DNA was sheared by sonication. Lysates were kept on ice for 30 min, centrifuged 10 min (13,500×g, 4° C.), and protein concentration of supernatant determined by a Bradford assay (Protein Assay Dye Reagent, Bio-Rad). Lysates were mixed 1:1 with 2× Laemmli sample buffer containing β-mercaptoethanol and heated 5 min at 95° C. Protein was resolved by SDS-PAGE using 4-20% gradient polyacrylamide gels (Bio-Rad), then transferred to nitrocellulose membranes (Bio-Rad) for 2 hr at 100 V in tris-glycine transfer buffer containing 20% methanol. Membranes were blocked at room-temperature in 5% 1×TBST blocking buffer (TBS with 0.1% Tween-20 and 5% non-fat dry milk) for 1 hr with gentle agitation, followed by overnight incubation with primary Ab and gentle shaking at 4° C. The primary Abs were diluted as follows: GAPDH (1:1000, Cell Signaling Technology); GABARAP (1:1000, Cell Signaling Technology); NIX (1:1000, Cell Signaling Technology). Immunodetection was performed with anti-rabbit horseradish-peroxidase-conjugated secondary antibody (1:10000, Cell Signaling Technology). Post-primary Ab incubation, membranes were washed (3× for 10 min in TBST at room-temperature), probed with rabbit HRP tagged secondary antibody (1:3000, Cell Signaling Technology), and processed for chemiluminescence detection using ECL kit (Thermo Scientific). Chemiluminescence images were acquired using ChemiDoc Touch Imaging System (Bio-Rad)."}, "[4]": {"system": "GABARAP", "assay": "Western blot of GABARAP in H1792 cells", "assay_type": "cell-based, human", "protocol": "as §4, with “Chemiluminescence images were acquired using ChemiDoc Touch Imaging System (Bio-Rad).” left out"}, "[5]": {"system": "LC3B- and NIX-positive puncta in H1792 cells", "assay": "Confocal immunofluorescence of autophagosome puncta", "assay_type": "cell-based, human", "conditions": "H1792, relative to DMSO control", "protocol": "Cells were seeded on sterile glass cover slips and grown overnight at 37° C. Cells were then rinsed with cold PBS and fixed in 4% paraformaldehyde (30 min, room temperature). Fixed cells were rinsed in PBS (3×5 min at room-temperature), and permeabilized (15 min in PBS containing 0.1% Triton X-100). Cells were washed in PBS (3× for 5 min at room-temperature) and incubated with blocking buffer (PBS containing 0.3% Triton X-100 and 3% BSA) for 1 hr at room-temperature with gentle shaking. Blocking solution was aspirated, cells washed with ice-cold PBS, and incubated overnight with primary Ab (LC3B or NIX) diluted 1:200 in sterile 0.5% BSA in PBS at 4° C. on the cover slip placed on a glass slide kept inside a humidified 10 cm dish with gentle shaking 60. Cells were washed (3× for 5 min in PBS) and incubated with fluorophore conjugated secondary Ab goat anti-rabbit Alexa Fluor 594 (Abcam) in 2% normal donkey serum at room-temperature for 1 hr in dark. Cells were washed (3× for 5 min in PBS) under low light and mounted on a glass slide in […] Antifade Mounting Medium with DAPI (Vector Laboratories). The following Abs were used (1:200 dilution): rabbit anti-human LC3B (Cell Signaling Technology) and rabbit NIX (Cell Signaling Technology). Slides were imaged on a Zeiss LSM 710 laser scanning confocal microscope and analyzed using NIH Fiji ImageJ2 (version 1.53c)."}, "[6]": {"system": "Lewis Lung Carcinoma cells", "assay": "Mitochondrial depolarization, TMRE binding by FACS", "assay_type": "cell-based, mouse", "conditions": "for TMRE binding (depolarization): Lewis Lung Carcinoma cells, FACS, within 15 minutes of incubation; for shift in electric charge distribution / depolarization of cancer cells: different/disparate cancer cell types"}, "[7]": {"system": "cancer cell lines A375, H1792, LN18, LLC", "assay": "In vitro viability assay (Cell Titer 96 Aqueous One), cancer cell lines", "assay_type": "cell-based, human, mouse", "conditions": "for cytotoxicity of NOR-variant relative to non-NOR-variant: SRE-III-35 vs TA-IV-74, TA-II-59 vs TA-II-73", "protocol": "as §1, §2, §3"}, "[8]": {"system": "Lewis Lung Carcinoma (LLC) tumors", "assay": "Bilateral flank LLC tumor growth delay in C57Bl6 mice", "assay_type": "in vivo, mouse", "description": "as §2\nFor subcutaneous xenograft tumor growth delay experiments, black 6 mice (C57Bl6) were purchased (Charles River Laboratories) and housed at University of Cincinnati LAMS. Purchased mice were allowed to accommodate for a week prior to experiment. Mice were housed in pathogen-free rooms and clinical health evaluated weekly by veterinary staff of the University of Cincinnati LAMS. All animal studies were conducted in accordance with approval of a University of Cincinnati IACUC.\nLLC1 cells (a million) grown in RPMI medium were washed in cold PBS and mixed with Matrigel 25%, then injected subcutaneously into left and right flanks above the hind limbs of 6 to 8-week-old mice. When subcutaneous tumors were palpable (˜100 mm^3 in size) the following treatments groups were initiated: (1) vehicle (2) drug. In mice receiving vehicle alone, the vehicle was injected i.p for 7 days. In mice receiving drug, drug (2.5 mg/kg body weight) was injected i.p. for 7 days. Following end of treatment, tumor volume were taken for growth delay studies. Mouse tumors were measured by Vernier calipers. Tumor volume was calculated using the formula: 4/3π×(l×h2), where: l and h are radii of the tumor taken perpendicular to each other. Tumor size was measured three times a week using a caliper."}, "[9]": {"conditions": "2.5 mg/kg i.p. for seven consecutive days"}}, "note": "Entries after “also recorded” stand apart in the source; their conditions may differ."}
{"smiles": "C#Cc1ccc2c(c1)C(c1ccccc1F)=NC(O)C(=O)N2", "note": "(stereo not drawn) [MYM-I-59, 7-ethynyl-5-(2-fluorophenyl)-3-hydroxy-1,3-dihydro-2H-benzo[e][1,4]diazepin-2-one]", "values": [{"measurement": "cytotoxicity (activity)", "setting": "[1]", "value": "poorly or inactive"}]}
{"smiles": "C#Cc1ccc2c(c1)C(c1ccccc1)=NCC(=O)N2C", "note": "[QH-II-066]", "values": [{"measurement": "current response to GABA plus compound over GABA alone", "setting": "[2]", "value": "enhanced response; also recorded: enhances the current signal"}, {"measurement": "dose dependence of induced NIX dimerization", "setting": "[3]; H1792", "value": "dose-dependent"}, {"measurement": "NIX dimerization", "setting": "[3]; H1792, 72 hours", "value": "dimerize"}, {"measurement": "NIX protein level", "setting": "[3]; H1792, 72 hours post-treatment", "value": "pronounced accumulation"}, {"measurement": "GABARAP dimerization", "setting": "[4]; H1792, 72 hours", "value": "dimerize"}, {"measurement": "GABARAP protein level", "setting": "[4]; H1792, 72 hours post-treatment", "value": "pronounced accumulation"}, {"measurement": "LC3B-positive puncta", "setting": "[5]", "value": "increased puncta"}, {"measurement": "NIX-positive puncta", "setting": "[5]", "value": "increased puncta"}]}
{"smiles": "O=C1CN=C(c2ccccc2)c2cc(C3CC3)ccc2N1", "note": "[SRE-III-35, 7-cyclopropyl-5-phenyl-1,3-dihydro-2H-benzo[e][1,4]diazepin-2-one]", "values": [{"measurement": "TMRE binding (depolarization)", "setting": "[6]", "value": "reduced TMRE binding"}, {"measurement": "shift in electric charge distribution / depolarization of cancer cells", "setting": "[6]", "value": "depolarizing"}, {"measurement": "cytotoxicity of NOR-variant relative to non-NOR-variant", "setting": "[7]", "value": 2, "unit": "fold"}, {"measurement": "potency relative to TA-II-59", "setting": "[7]; cytotoxicity", "value": "equally as potent"}, {"measurement": "tumor control relative to vehicle mice", "setting": "[8]; [9]", "value": "significant tumor control"}]}
{"smiles": "O=C1CN=C(c2ccccc2F)c2cc(C3CC3)ccc2N1", "note": "[SRE-III-43, 7-cyclopropyl-5-(2-fluorophenyl)-1,3-dihydro-2H-benzo[e][1,4]diazepin-2-one]", "values": [{"measurement": "TMRE binding (depolarization)", "setting": "[6]", "value": "reduced TMRE binding"}, {"measurement": "shift in electric charge distribution / depolarization of cancer cells", "setting": "[6]", "value": "depolarizing"}]}
{"smiles": "C#Cc1ccc2c(c1)C(c1ccccc1C)=NCC(=O)N2", "note": "[TA-II-59, 7-ethynyl-5-(o-tolyl)-1,3-dihydro-2H-benzo[e][1,4]diazepin-2-one]", "values": [{"measurement": "TMRE binding (depolarization)", "setting": "[6]", "value": "reduced TMRE binding"}, {"measurement": "shift in electric charge distribution / depolarization of cancer cells", "setting": "[6]", "value": "depolarizing"}, {"measurement": "cytotoxicity to cancer cells", "setting": "[7]; LN18, H1792, A375, LLC1", "value": "most potent"}, {"measurement": "cytotoxicity of NOR-variant relative to non-NOR-variant", "setting": "[7]", "value": 2, "unit": "fold"}, {"measurement": "potency relative to QH-II-066", "setting": "[7]; cytotoxicity", "value": "an order of magnitude more potent"}, {"measurement": "tumor control relative to vehicle mice", "setting": "[8]; [9]", "value": "significant tumor control"}]}
{"smiles": "C#Cc1ccc2c(c1)C(c1ccccc1F)=NCC(=S)N2C", "note": "[TA-III-50, 7-ethynyl-5-(2-fluorophenyl)-1-methyl-1,3-dihydro-2H-benzo[e][1,4]diazepine-2-thione]", "values": [{"measurement": "cytotoxicity (activity)", "setting": "[1]", "value": "poorly or inactive"}]}
{"smiles": "C#Cc1ccc2c(c1)C(c1ccccc1)=NCC(=S)N2C", "note": "[TA-III-52, 7-ethynyl-1-methyl-5-phenyl-1,3-dihydro-2H-benzo[e][1,4]diazepine-2-thione]", "values": [{"measurement": "cytotoxicity (activity)", "setting": "[1]", "value": "poorly or inactive"}]}
{"smiles": "O=C1CN=C(c2ccccc2)c2cc(Br)cc(Br)c2N1", "note": "[TA-III-56, 7,9-dibromo-5-phenyl-1,3-dihydro-2H-benzo[e][1,4]diazepin-2-one]", "values": [{"measurement": "cytotoxicity (activity)", "setting": "[1]", "value": "poorly or inactive"}]}
{"smiles": "C#Cc1cc(C#C)c2c(c1)C(c1ccccc1)=NCC(=O)N2C", "note": "[TA-III-62, 7,9-diethynyl-1-methyl-5-phenyl-1,3-dihydro-2H-benzo[e][1,4]diazepin-2-one]", "values": [{"measurement": "cytotoxicity (activity)", "setting": "[1]", "value": "poorly or inactive"}]}
{"smiles": "C#Cc1ccc2c(c1)C(c1ccccc1)=NC(O)C(=O)N2C", "note": "(stereo not drawn) [TA-III-70, 7-ethynyl-3-hydroxy-1-methyl-5-phenyl-1,3-dihydro-2H-benzo[e][1,4]diazepin-2-one]", "values": [{"measurement": "cytotoxicity (activity)", "setting": "[1]", "value": "poorly or inactive"}]}
{"smiles": "CN1C(=O)CN=C(c2ccccc2)c2cc(C3CC3)ccc21", "note": "[TA-IV-74, 7-cyclopropyl-1-methyl-5-phenyl-1,3-dihydro-2H-benzo[e][1,4]diazepin-2-one]", "values": [{"measurement": "effect compared with the other compounds tested", "setting": "[8]; [9]", "value": "most significant effect; also recorded: most effective"}, {"measurement": "tumor control relative to vehicle mice", "setting": "[8]; [9]", "value": "significant tumor control"}, {"measurement": "tumor volume", "setting": "[8]; at 25 days, 2.5 mg/kg i.p. for seven days", "value": "no increase in tumor volume"}]}
